Source: US20110046104A1, “AMINOPYRIMIDINES USEFUL AS KINASE INHIBITORS” (VERTEX PHARMACEUTICALS INCORPORATED, priority 2007, published 2011)

Tests used:
Aurora-1 (Aurora B) = Aurora-1 (Aurora B) (Homo sapiens, UniProt Q96GD4); experiment: Aurora-1 (Aurora B) inhibition assay (radiometric); assay type: biochemical; conditions: 800 μM [γ-33P]-ATP, Kemptide, 25° C., 3 hours
Experimental: An assay buffer solution was prepared which consisted of 25 mM HEPES (pH 7.5), 10 mM MgCl2, 0.1% BSA and 10% glycerol. A 22 nM Aurora-B solution, also containing 1.7 mM DTT and 1.5 mM Kemptide (LRRASLG), was prepared in assay buffer. To 22 μL of the Aurora-B solution, in a 96-well plate, was added 2 μl of a compound stock solution in DMSO and the mixture allowed to equilibrate for 10 minutes at 25° C. The enzyme reaction was initiated by the addition of 16 μl stock [γ-^33P]-ATP solution (˜20 nCi/μL) prepared in assay buffer, to a final assay concentration of 800 μM. The reaction was stopped after 3 hours by the addition of 16 μL 500 mM phosphoric acid and the levels of ^33P incorporation into the peptide substrate were determined by the following method.
A phosphocellulose 96-well plate (Millipore, Cat no. MAPHNOB50) was pre-treated with 100 μL of a 100 mM phosphoric acid prior to the addition of the enzyme reaction mixture (40 μL). The solution was left to soak on to the phosphocellulose membrane for 30 minutes and the plate subsequently washed four times with 200 μL of a 100 mM phosphoric acid. To each well of the dry plate was added 30 μL of Optiphase ‘SuperMix’ liquid scintillation cocktail (Perkin Elmer) prior to scintillation counting (1450 Microbeta Liquid Scintillation Counter, Wallac). Levels of non-enzyme catalyzed background radioactivity were determined by adding 16 μL of the 500 mM phosphoric acid to control wells, containing all assay components (which acts to denature the enzyme), prior to the addition of the [γ-^33P]-ATP solution. Levels of enzyme catalyzed ^33P incorporation were calculated by subtracting mean background counts from those measured at each inhibitor concentration. For each Ki determination 8 data points, typically covering the concentration range 0-10 μM compound, were obtained in duplicate (DMSO stocks were prepared from an initial compound stock of 10 mM with subsequent 1:2.5 serial dilutions). Ki values were calculated from initial rate data by non-linear regression using the Prism software package (Prism 3.0, Graphpad Software, San Diego, Calif.).

Aurora-2 (Aurora A) = molecular target: T1, Aurora-2 (Aurora A) (Homo sapiens, UniProt O14965); experiment: Aurora-2 (Aurora A) inhibition assay, coupled enzyme assay; assay type: biochemical; conditions: 400 μM ATP, 570 μM Kemptide, 40 nM Aurora-2, 30° C.
T1 sequence (O14965 1-403): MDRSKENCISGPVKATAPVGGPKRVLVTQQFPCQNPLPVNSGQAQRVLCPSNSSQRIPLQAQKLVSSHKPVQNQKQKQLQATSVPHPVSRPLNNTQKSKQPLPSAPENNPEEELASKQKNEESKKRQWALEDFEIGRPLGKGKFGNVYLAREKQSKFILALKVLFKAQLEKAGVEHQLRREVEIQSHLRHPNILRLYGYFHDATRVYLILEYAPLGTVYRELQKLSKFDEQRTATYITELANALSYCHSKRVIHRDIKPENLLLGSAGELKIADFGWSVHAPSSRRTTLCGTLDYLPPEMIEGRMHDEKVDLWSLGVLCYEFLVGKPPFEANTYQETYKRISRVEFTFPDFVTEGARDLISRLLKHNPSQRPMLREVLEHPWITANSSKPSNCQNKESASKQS
Experimental: Compounds were screened for their ability to inhibit Aurora-2 using a standard coupled enzyme assay (Fox et al., Protein Sci., (1998) 7, 2249). Assays were carried out in a mixture of 100 mM Hepes (pH7.5), 10 mM MgCl2, 1 mM DTT, 25 mM NaCl, 2.5 mM phosphoenolpyruvate, 300 μM NADH, 30 μg/ml pyruvate kinase and 10 μg/ml lactate dehydrogenase. Final substrate concentrations in the assay were 400 μM ATP (Sigma Chemicals) and 570 μM peptide (Kemptide, American Peptide, Sunnyvale, Calif.). Assays were carried out at 30° C. and in the presence of 40 nM Aurora-2.
An assay stock buffer solution was prepared containing all of the reagents listed above, with the exception of Aurora-2 and the test compound of interest. 55 μl of the stock solution was placed in a 96 well plate followed by addition of 2 μl of DMSO stock containing serial dilutions of the test compound (typically starting from a final concentration of 7.5 μM). The plate was preincubated for 10 minutes at 30° C. and the reaction initiated by addition of 10 μl of Aurora-2. Initial reaction rates were determined with a Molecular Devices SpectraMax Plus plate reader over a 10 minute time course. IC50 and Ki data were calculated from non-linear regression analysis using the Prism software package (GraphPad Prism version 3.0cx for Macintosh, GraphPad Software, San Diego Calif., USA).

Sequence of Aurora-1 (Aurora B) (Q96GD4 whole entry): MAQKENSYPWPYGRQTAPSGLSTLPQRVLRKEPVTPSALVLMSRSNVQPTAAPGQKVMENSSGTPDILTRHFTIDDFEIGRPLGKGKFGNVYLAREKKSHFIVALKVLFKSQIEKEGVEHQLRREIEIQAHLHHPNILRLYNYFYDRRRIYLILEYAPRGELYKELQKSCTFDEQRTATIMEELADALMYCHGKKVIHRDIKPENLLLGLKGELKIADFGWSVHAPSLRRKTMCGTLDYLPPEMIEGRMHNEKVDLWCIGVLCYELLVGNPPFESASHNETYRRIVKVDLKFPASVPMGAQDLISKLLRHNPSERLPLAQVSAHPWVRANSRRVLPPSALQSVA

SMILES | Ki (Aurora-1 (Aurora B)) | Ki (Aurora-2 (Aurora A))
O=C(CC(F)(F)F)Nc1ccc(Sc2nc(Nc3ncns3)cc(N3CC(F)(C4CC4)C3)n2)cc1 [Compound I-1, N-(4-(4-(1,2,4-thiadiazol-5-ylamino)-6-(3-cyclopropyl-3-fluoroazetidin-1-yl)pyrimidin-2-ylthio)phenyl)-3,3,3-trifluoropropanamide] | > 1500 nM | 33 nM
O=C(CC(F)(F)F)Nc1ccc(Sc2nc(Nc3nnc[nH]3)cc(N3CC(F)(C4CC4)C3)n2)cc1 [Compound I-2, N-(4-(4-(4H-1,2,4-Triazol-3-ylamino)-6-(3-cyclopropyl-3-fluoroazetidin-1-yl)pyrimidin-2-ylthio)phenyl)-3,3,3-trifluoropropanamide] | > 1500 nM | –
O=C(CC(F)(F)F)Nc1ccc(Sc2nc(Nc3ccccn3)cc(N3CC(F)(C4CC4)C3)n2)cc1 [Compound I-3, N-(4-(4-(3-Cyclopropyl-3-fluoroazetidin-1-yl)-6-(pyridin-2-ylamino)pyrimidin-2-ylthio)phenyl)-3,3,3-trifluoropropanamide] | < 500 nM | –
O=C(Nc1ccc(Sc2nc(Nc3ncns3)cc(N3CC(F)(C4CC4)C3)n2)cc1)C1CC1 [Compound I-4, N-(4-(4-(1,2,4-Thiadiazol-5-ylamino)-6-(3-cyclopropyl-3-fluoroazetidin-1-yl)pyrimidin-2-ylthio)phenyl)cyclopropanecarboxamide] | > 1500 nM | –
O=C(Nc1ccc(Sc2nc(Nc3ncns3)cc(N3CCC3)n2)cc1)c1ccccc1Cl [Compound I-7, N-(4-(4-(1,2,4-Thiadiazol-5-ylamino)-6-(azetidin-1-yl)pyrimidin-2-ylthio)phenyl)-2-chlorobenzamide] | < 500 nM | –
O=C(NCC(F)(F)F)c1ccc(Sc2nc(Nc3ncns3)cc(N3CC(F)(C4CC4)C3)n2)cc1 [Compound I-8, 4-(4-(1,2,4-Thiadiazol-5-ylamino)-6-(3-cyclopropyl-3-fluoroazetidin-1-yl)pyrimidin-2-ylthio)-N-(2,2,2-trifluoroethyl)benzamide] | > 1500 nM | –
O=C(CC(F)(F)F)Nc1ccc(Sc2nc(Nc3ccccn3)cc(N3CC[C@H](F)C3)n2)cc1 [Compound I-9, (S)-3,3,3-Trifluoro-N-(4-(4-(3-fluoropyrrolidin-1-yl)-6-(pyridin-2-ylamino)pyrimidin-2-ylthio)phenyl)propanamide] | > 1500 nM | –
O=C(CC(F)(F)F)Nc1ccc(Sc2nc(Nc3nnc[nH]3)cc(N3CC[C@H](F)C3)n2)cc1 [Compound I-10, (S)—N-(4-(4-(4H-1,2,4-Triazol-3-ylamino)-6-(3-fluoropyrrolidin-1-yl)pyrimidin-2-ylthio)phenyl)-3,3,3-trifluoropropanamide] | < 500 nM | –
O=C(CC(F)(F)F)Nc1ccc(Sc2nc(Nc3ncns3)cc(N3CC[C@H](F)C3)n2)cc1 [Compound I-11, (S)—N-(4-(4-(1,2,4-Thiadiazol-5-ylamino)-6-(3-fluoropyrrolidin-1-yl)pyrimidin-2-ylthio)phenyl)-3,3,3-trifluoropropanamide] | > 1500 nM | –
